The values below are quoted from earlier work in patent publication EP0054589B1, “Organic phosphoric acid ester derivatives, a process for preparing the same and insecticidal, miticidal or nematocidal compositions containing the same” (priority 1980, dated 1982).

Some test systems named below: rice stem borer; smaller tea tortrix; apple leaf miner; tobacco cutworm; diamond back moth.
Holding throughout (conditions): U.S. Patent No. 3,969,438; cited from earlier work

For the compound `CCCSP(=O)(OCC)Oc1ccc2c(C)cc(=O)oc2c1` (centres unmarked), the “pesticidal effect on rice stem borer” value in the data set with rice stem borer was “to some extent”. In addition, the “pesticidal effect on smaller tea tortrix” value in the data set on smaller tea tortrix is recorded as “to some extent”. Moreover, in the data set with apple leaf miner, the “pesticidal effect on apple leaf miner” value is given as “less effective”. Also, the “pesticidal effect on tobacco cutworm” value in the data set on tobacco cutworm is given as “to some extent”. The “pesticidal effect on diamond back moth” value with diamond back moth is given as “to some extent”.
